This is an account of results in patent US10906905B2, “Five-membered heteroaryl ring bridged ring derivative, preparation method therefor and medical use thereof” (Jiangsu Hengrui Medicine Co., Ltd., priority 2016, dated 2021).

One assay addresses TGFβRI kinase ALK5 (Homo sapiens (Human), UniProt P36897). Kind of assay: Inhibition of TGFβRI kinase ALK5 activity (TGFβRI kinase assay kit, ADP-Glo). It counts as biochemical. The following applies: ATP 50 μM; read-out: IC50 of inhibition effect on TGFβRI kinase ALK5 activity. On the procedure: The inhibition effect of TGFβRI kinase activity in vitro was determined by the following method.
The inhibition effect of the compounds of the present invention on TGFβRI kinase ALK5 activity was determined by the following experimental method:
TGFβRI kinase assay kit (V4093, Promega) was used to assay enzyme activity. 2 μl of enzyme solution (the final concentration of enzyme in the reaction system was 2 ng/μL) formulated with reaction buffer (40 mM Tris pH 7.5, 20 mM MgCl2, 0.1 mg/ml BSA), 1 μl of a 3-fold gradient dilution of the compounds dissolved in 5% DMSO, and 2 μl of a mixed solution of ATP and TGFβRI substrate peptide (the final concentration of ATP was 50 μM, and the final concentration of substrate was 0.2 μg/μL) were added successively to a 384-well plate (4514, Corning). After reaction at 27° C. for 2.5 hours, 5 μl of ADP-Glo solution in the kit was added to each well, then the plate was placed at 27° C. for 40 minutes. 10 μl of kinase assay reagent was then added to each well, then the plate was placed at 27° C. for 30 minutes. The chemiluminescence signal values were measured with a Victor 3 (PerkinElmer) multi-function microplate reader. The IC50 values of the compounds for enzyme inhibition were calculated using Graphpad prism software based on each concentration of the compound and the corresponding signal value thereof.

The test system of assay [1] is Smad signaling pathway of TGFβRI. Kind of assay: Inhibition of Smad signaling pathway of TGFβRI (3TP-lux luciferase reporter in HepG2 cell). It counts as cell-based. The following applies: Homo sapiens; HepG2 cell, 3TP-lux plasmid, 18 hours; read-out: IC50 on the inhibition of Smad signaling pathway of TGFβRI. The protocol: The inhibition effect of the compounds of the present invention on Smad signaling pathway of TGFβRI was determined by the following in vitro test.
The inhibition effect of the compounds of the present invention on Smad signaling pathway of TGFβRI was determined by the following experimental method:
The seeding density is 2.5×10^4 cells/well. The cells were incubated overnight at 37° C., 5% CO2. Each well was replaced with fresh EMEM medium containing 10% FBS. […] The cells were further incubated for 24 hours at 37° C., 5% CO2. Each well was replaced with 90 μL of EMEM medium containing 0.5% FBS, then the cells were starved for 6 hours. The compounds were formulated as a 20 mM stock solution, which was diluted in gradient to a 400× concentration with 100% DMSO, and further 40-fold diluted with EMEM containing 0.5% FBS. The cell culture plate was taken out, then 10 μl of diluted compound or control (0.25% DMSO) was added to each well respectively. The plate was shaken gently, then incubated for 18 hours in an incubator at 37° C., 5% CO2. Finally, 100 μl of detection reagent ONE-Glo™ Luciferase Assay (E6110, Promega) was added to each well, and the plate was placed in dark at room temperature for 10 minutes. The chemiluminescence signal values were measured with a Victor 3.0 (PerkinElmer). The IC50 values of the compounds were calculated using Graphpad Prism software based on each concentration of the compound and the corresponding signal value thereof.

TGFβRI kinase ALK5, sequence (P36897 34-503): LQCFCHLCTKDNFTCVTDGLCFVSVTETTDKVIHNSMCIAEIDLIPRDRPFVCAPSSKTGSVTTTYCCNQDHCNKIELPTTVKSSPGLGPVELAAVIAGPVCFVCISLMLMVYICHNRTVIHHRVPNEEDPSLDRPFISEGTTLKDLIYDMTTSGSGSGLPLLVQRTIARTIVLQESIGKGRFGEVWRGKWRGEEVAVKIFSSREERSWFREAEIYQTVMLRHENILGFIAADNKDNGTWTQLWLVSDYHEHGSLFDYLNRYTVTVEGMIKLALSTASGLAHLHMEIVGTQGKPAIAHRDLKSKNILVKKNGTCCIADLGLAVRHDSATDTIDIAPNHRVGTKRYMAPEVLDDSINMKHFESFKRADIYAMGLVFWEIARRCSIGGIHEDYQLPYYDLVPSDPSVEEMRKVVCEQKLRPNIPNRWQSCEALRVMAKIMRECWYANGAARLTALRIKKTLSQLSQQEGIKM

Regarding `Cc1cccc(-c2nc3n(c2-c2ccnc(-c4ccc(C(=O)NC5CCOCC5)cc4)c2)C2CCC3C2)n1` (stereo not drawn) [Example 17, 4-(4-(2-(6-Methylpyridin-2-yl)-5,6,7,8-tetrahydro-5,8-methanoimidazo[1,2-a]pyridin-3-yl)pyridin-2-yl)-N-(tetrahydro-2H-pyran-4-yl)benzamide], the IC50 at TGFβRI kinase ALK5 was 38 nM.
For `Cc1cccc(-c2nn3c(c2-c2ccnc4ccc(C(N)=O)cc24)C2CCC3C2)n1` (stereo not drawn) [Example 35, 4-(2-(6-Methylpyridin-2-yl)-4,5,6,7-tetrahydro-4,7-methanopyrazolo[1,5-a]pyridin-3-yl)quinoline-6-carboxamide], the IC50 at TGFβRI kinase ALK5 came out at 12 nM.
Take `Cc1cccc(-c2nc3n(c2-c2ccnc(-c4ccc(C(=O)O)cc4)c2)C2CCC3C2)n1` (stereo not drawn) [Example 19, 4-(4-(2-(6-Methylpyridin-2-yl)-5,6,7,8-tetrahydro-5,8-methanoimidazo[1,2-a]pyridin-3-yl)pyridin-2-yl)benzoic acid]: the IC50 at TGFβRI kinase ALK5 was 87 nM.
In the case of `Cc1cccc(-c2nc3n(c2-c2ccc(=O)n(C)c2)C2CCC3C2)n1` (stereo not drawn) [Example 20, 1-Methyl-5-(2-(6-methylpyridin-2-yl)-5,6,7,8-tetrahydro-5,8-methanoimidazo[1,2-a]pyridin-3-yl)pyridin-2(1H)-one], the IC50 in assay [1] is 53 nM.
Regarding `Cc1cccc(-c2nc3n(c2-c2ccnc(-c4ccc(S(C)(=O)=O)cc4)c2)C2CCC3C2)n1` (stereo not drawn) [Example 3, 2-(6-Methylpyridin-2-yl)-3-(2-(4-(methylsulfonyl)phenyl)pyridin-4-yl)-5,6,7,8-tetrahydro-5,8-methanoimidazo[1,2-a]pyridine], the IC50 in assay [1] was determined as 58 nM.
On the same count and under the same terms, the value for `Cc1cccc(-c2nn3c(c2-c2ccnc(NCCO)c2)C2CCC3CC2)n1` [Example 37, 2-((4-(2-(6-Methylpyridin-2-yl)-4,5,6,7-tetrahydro-4,7-ethanopyrazolo[1,5-a]pyridin-3-yl)pyridin-2-yl)amino)ethanol] was 61 nM.
As to `Cc1cccc(-c2nc3n(c2-c2ccnc(NC(=O)OC(C)(C)C)c2)C2CCC3C2)n1` (stereo not drawn) [Example 31, Tert-butyl (4-(2-(6-methylpyridin-2-yl)-5,6,7,8-tetrahydro-5,8-methanoimidazo[1,2-a]pyridin-3-yl)pyridin-2-yl)carbamate], the IC50 on TGFβRI kinase ALK5 stood at 55 nM.
Regarding `Cc1cccc(-c2nn3c(c2-c2ccnc4ccc(C(N)=O)cc24)C2CCC3CC2)n1` [Example 34, 4-(2-(6-Methylpyridin-2-yl)-4,5,6,7-tetrahydro-4,7-ethanopyrazolo[1,5-a]pyridin-3-yl)quinoline-6-carboxamide], the IC50 on TGFβRI kinase ALK5 is 12 nM.
Regarding `Cc1cccc(-c2nc3n(c2-c2ccc4nccc(OC5CCNCC5)c4c2)C2CCC3C2)n1` (stereo not drawn) [Example 15, 2-(6-Methylpyridin-2-yl)-3-(4-(piperidin-4-yloxy)quinolin-6-yl)-5,6,7,8-tetrahydro-5,8-methanoimidazo[1,2-a]pyridine], the IC50 on TGFβRI kinase ALK5 came to 60 nM.
`Cc1cccc(-c2nc3n(c2-c2ccnc(OCCO)c2)C2CCC3C2)n1` (stereo not drawn) [Example 26, 2-((4-(2-(6-Methylpyridin-2-yl)-5,6,7,8-tetrahydro-5,8-methanoimidazo[1,2-a]pyridin-3-yl)pyridin-2-yl)oxy)ethanol]: the IC50 in assay [1] was 86 nM.
Regarding `Cc1cccc(-c2nc3n(c2-c2ccnc4ccc(C(N)=O)cc24)C2CCC3C2)n1` (stereo not drawn) [Example 29, 4-(2-(6-Methylpyridin-2-yl)-5,6,7,8-tetrahydro-5,8-methanoimidazo[1,2-a]pyridin-3-yl) quinoline-6-carboxamide], on TGFβRI kinase ALK5, the IC50 is 85 nM.
As to `NC(=O)c1ccc(-c2cc(-c3c(-c4ccc(F)cn4)nc4n3[C@H]3CC[C@@H]4C3)ccn2)cc1` [Example 41-1, 4-(4-((5S,8R)-2-(5-Fluoropyridin-2-yl)-5,6,7,8-tetrahydro-5,8-methanoimidazo[1,2-a]pyridin-3-yl)pyridin-2-yl)benzamide], the IC50 on TGFβRI kinase ALK5 amounted to 28 nM.
